Measurements: PMC10878246, “Crystal structure and biochemical activity of the macrodomain from rubella virus p150” (Journal of virology, 2024)

Target: T1, RuV macrodomain (macrodomain from rubella virus p150) (Rubella virus, UniProt G3M8F4)
T1 construct: gene NSP; macrodomain, p150 residues 805-983 (p150 is cut from nonstructural polyprotein p200); pET24a, C-terminal His6 tag, no tag cleavage described; E. coli BL21(DE3)
Assay: isothermal titration calorimetry
Assay type: binding
Settings: 20 mM HEPES pH 8, 0.15 M NaCl, 25 °C; 1:1 single-site; crystal structure by soaking with 2 mM ADP-ribose

Q: `Nc1ncnc2c1ncn2[C@@H]1O[C@H](COP(=O)(O)OP(=O)(O)OC[C@H]2OC(O)[C@H](O)[C@@H]2O)[C@@H](O)[C@H]1O` (stereo partly shown) [ADP-ribose] was tested. Which Kd did it give?
A: 58.1 ± 5.4 µM
